For orientation: IC50 means the concentration that inhibits the measured activity by half.

The record followed here is patent publication US11602532B2, “Nanoparticle formulations of decoquinate in the form of solid solution” (CAS Lamvac (Guangzhou) Biomedical Technology Co., Ltd., priority 2019, dated 2023).

Where two headings read alike, the source gives them in different places.

Data set [1] in a line: HPLC analysis of decoquinate after HME, acid or alkaline treatment. It is filed as physicochemical. To be noted: treated with pH 1.2 solution for 2 days. How it is done: Samples are dialyzed against distilled water, diluted and analyzed with the established method. […] Differential scanning calorimetry (DSC) analysis and X-ray diffraction analysis were performed for the selected formulations in the Examples described above.

A further data set deals with pfB74F6 (PS). The experiment in a line: Malaria SYBR fluorescence (MSF) blood stage assay, pfB74F6. The class given is cell-based. The conditions noted are these: Plasmodium falciparum, read-out: IC50 (nM) Mean. How it is done: (§1) Fifteen different preparations of decoquinate solid solutions as described in Examples were tested in cell culture assays to assess the growth inhibition of blood stage Plasmodium in freshly isolated human blood cells and the growth inhibition of Plasmodium in the liver stage in cell culture of HepG2 cells. The malaria SYBR fluorescence (MSF) assay was performed to detect the parasite DNA of Plasmodium falciparum in late-ring or early-trophozoite stages. […] The intensity of fluorescence generated by the binding of SYBR Green I dye to Plasmodium DNA is quantitatively proportional to the number of parasites. The detailed description of method refers to SOP of the inventors.
(§2) Chloroquine and artemisinin were used as positive controls in the same experiments.

For the next data set, the system named is pfDd2. The experiment in a line: Malaria SYBR fluorescence (MSF) blood stage assay, pfDd2. It is filed as cell-based. To be noted: Plasmodium falciparum, read-out: IC50 (nM) Mean. How it is done: as §1, §2
The next data set concerns pfB12D9 (PS). The experiment in a line: Malaria SYBR fluorescence (MSF) blood stage assay, pfB12D9. The conditions noted are these: Plasmodium falciparum, read-out: IC50 (nM) Mean. The class given is cell-based. How it is done:
as §1
Table 6 is the results showing in vitro antimalarial potency of decoquinate HME formulations prepared from Example 8 (F8) and Example 15 (F15). […] Chloroquine and artemisinin were used as positive controls in the same experiments.
(§3) The HME solid solutions were treated with alkaline buffer (pH 9), or with high temperature (60° C.) or with high humidity (92%) for 5 or 10 days respectively and then used for testing decoquinate inhibitory effects in in vitro blood stage experiments using freshly prepared red blood cells infected with Plasmodium Pf803 or PfB12D9. The base pH was neutralized by dialysis of decoquinate HME samples before used in cell culture experiments.

In a further data set the test system is Pf3D7. The experiment in a line: Malaria SYBR fluorescence (MSF) blood stage assay, Pf3D7. The class given is cell-based. The conditions noted are these: Plasmodium falciparum, read-out: IC50 (nM) Mean. How it is done:
as §1, §2

In another data set the test system is pfB74C4 (PS). The experiment in a line: Malaria SYBR fluorescence (MSF) blood stage assay, pfB74C4. It is filed as cell-based. The conditions noted are these: Plasmodium falciparum, read-out: IC50 (nM) Mean. How it is done:
as §1, §2

The subject of another data set is pfB47D6 (PS). The experiment in a line: Malaria SYBR fluorescence (MSF) blood stage assay, pfB47D6. The class given is cell-based. To be noted: Plasmodium falciparum, read-out: IC50 (nM) Mean. How it is done: as §1, §2
Another data set relates to pfB64G11 (PS). The experiment in a line: Malaria SYBR fluorescence (MSF) blood stage assay, pfB64G11. It is filed as cell-based. To be noted: Plasmodium falciparum, read-out: IC50 (nM) Mean. How it is done:
as §1, §2

In the next data set the test system is Pf803. The experiment in a line: Malaria SYBR fluorescence (MSF) blood stage assay, Pf803. The class given is cell-based. The conditions noted are these: Plasmodium falciparum, read-out: IC50 (nM) Mean. How it is done:
as §1, §2, §3

Data set [2] concerns Plasmodium berghei ANKA 868 expressing luciferase. The experiment in a line: Inhibition of liver stage development assay (ILSDA) in HepG2 cells. It is filed as cell-based. The conditions noted are these: HepG2, read-out: PQ Mean (IC50).
Procedure: For the inhibition of liver stage development assay (ILSDA), HepG2 liver cells were cultured with Plasmodium berghei sporozoite expressing firefly luciferase in the presence of a series of dilutions of test compound. In the case of formulations, the compound concentration was determined by the quantitation of HPLC. […] The culture was maintained in microtiter plates for 48 hours after sporozoite invasion and intracellular proliferation of P. berghei parasites in HepG2 cells. The growth inhibition of the parasites by the test compound or the compound complexed with the excipients was determined by measuring the luminescent intensity produced by the process of luciferase catalyzing the substrates which were added by the end of incubation.
The experiments were carried out on HepG2 cells incubated with the sporozoites isolated from salivary glands of infected mosquitoes. […] The results were expressed by the half maximal inhibition concentration (IC50).
The test system of data set [3] is Plasmodium berghei ANKA (Pb 868 sporozoites). The experiment in a line: Causal prophylactic efficacy against sporozoite inoculation in NIH-Swiss female mice. It is filed as in vivo. How it is done:
The NIH-Swiss female mice used for the experiment were raised for at least 7 days after arrival. At the start of the experiment, the mice were 7 weeks old. Only one mouse was housed in each cage and maintained in a room with a temperature range of 18 to 26° C. with a relative humidity of 34% to 68% in a 12/12h light-dark cycle. Food and water were provided ad libitum during quarantine and throughout the study. This experiment was carried out in strict accordance with the relevant animal testing regulations (the Chinese State Council's Laboratory Animal Management Regulations, Revised Mar. 1, 2017). The decoquinate suspension used in the animal experiment was from the product of Examples 2, 8, 9, 11, 12 and 15 (F2, F8, F9, F11, F12 and F15), prepared with saline and subjected to ultrasonic treatment for 5 minutes. Each animal experiment was repeated at least three times with a group of 5 each time, so that at least 15 mice were tested in each group. The mice were inoculated with Plasmodium parasites by an injection of 50,000 sporozoites of Plasmodium berghei ANKA (Pb 868 sporozoites) through the tail vein of each mouse. Testing compound or formulation compound was administered to mice by PO (oral administration, by the manually intragastric method) the day before, the day of, and the next day after Plasmodium inoculation. The formulation compound suspended in saline were quantitated by HPLC method before dosing animals. The positive control was primaquine, an antimalarial drug used for the liver-stage Plasmodium. The vehicle control was the components used in the solid dispersion of decoquinate other than decoquinate. No anti-malarial activity was found with the vehicle control, the results of which were consistent with those obtained by using only saline as a negative control. The detection of Plasmodium parasitemia was performed as follows: a conventional method was used to count red blood cells per mm^3 of blood in that a thin film of blood was prepared and stained with 3% Giemsa for 20 minutes; and then the number of infected red blood cells per 1000 red blood cells was counted under oil microscope to obtain erythrocyte infected rate (EIR, ‰). If the parasites were not seen in the thin film, the thick film was prepared for detection of parasites and the results expressed as the parasite number per 100 white blood cells (WBC). Survival rates were calculated on day 60 post-infection for the still live mice versus the dead mice.
[…] The results shown were the number of infected mice on day 12 from the microscopic detection of parasites of thin or thick films. The results also include the protection rate on day 12 and survival rate on day 60. The products from F8, F9, F11 and F15 have 100% survival rates whereas PQ, F2 and F12 have survival rates of 80%.
Table 8 illustrates efficacy studies of the HME compositions prepared in various examples in mice infected with Plasmodium berghei expressing luciferase; wherein decoquinate given to animals at a dose of 5 mg per kg was in the saline suspension of F2, F8, F9, F11, F12, and […] HME preparations; the saline group as a negative control; PQ represents the primaquine group used as a positive control at a dose of 30 mg per kg body weight. […] Protection rates were calculated according to the data of parasitemia detection in mice on day 12 of Plasmodium sporozoite inoculation and the survival rates in each group on day 60 post the sporozoite inoculation.

Where [4] appears, read: primaquine 20 mg/kg (table), intragastric, 3 daily doses, 5 mice per group.

On to `CCCCCCCCCCOc1cc2c(O)c(C(=O)OCC)cnc2cc1OCC` [Decoquinate, ethyl-6-decyloxy-7-ethoxy-4-hydroxyquinoline-3-carboxylate], for which the “peak pattern and retention time of decoquinate in HPLC” value in data set [1] is “change in the peak pattern and the shift in the retention time”.
On to `C[C@@H]1CC[C@H]2[C@@H](C)C(=O)O[C@@H]3O[C@@]4(C)CC[C@@H]1[C@]32OO4` [Artemisinin], for which the IC50 in the data set with pfB74F6 (PS) (blood stage, pfB74F6, sample collected from patients) came out at 14.5 nM; in the data set on pfDd2 (blood stage, pfDd2 (multidrug resistance including chloroquine), 72h) it was 26 nM; in the data set with pfB12D9 (PS) it was 24.1 nM; with Pf3D7 (blood stage, Pf3D7, 72h), 23.1 nM; in the data set on pfB74C4 (PS) (blood stage, pfB74C4, sample collected from patients), 26.4 nM; in the data set with pfB47D6 (PS) (blood stage, pfB47D6, sample collected from patients), 25.4 nM. The IC50 came to 6.66 nM in the data set on pfB64G11 (PS) (blood stage, pfB64G11, sample collected from patients) and 32 nM in the data set on Pf803 (blood stage, Pf803 (chloroquine resistance), 72h).
`CCN(CC)CCCC(C)Nc1ccnc2cc(Cl)ccc12` (centres unmarked) [Chloroquine]: the IC50 with pfB74F6 (PS) amounted to 79.2 nM; with pfDd2 (72 h), 244 nM; with pfB12D9 (PS), 63.3 nM; in the data set with Pf3D7 (72 h), 57.5 nM; with pfB74C4 (PS), 59.3 nM; in the data set with pfB47D6 (PS), 78.2 nM. Moreover, the IC50 in the data set with pfB64G11 (PS) was 30.4 nM; in the data set with Pf803 (72 h) it was 957 nM.
Consider `COc1cc(NC(C)CCCN)c2ncccc2c1` (centres unmarked) [PQ, primaquine], for which the IC50 in [2] came to 1730 nM. In data set [3] (30 mg primaquine per kg body weight, day 60), the survival rate turned out to be 80%. In data set [3] (setting [4]), the “Infected (Day 12)” value is listed as 2, the “Protected rate (Day 12)” value turned out to be 60, the “Survival rate (Day 32)” value came to 80% and the “Survived (Day 32)” value came out at 4.
